The values below come from US20150071918A1, “PEPTIDES FOR THE TREATMENT OF CANCER” (H. LEE MOFFITT CANCER CENTER AND RESEARCH INSTITUTE, INC., priority 2012, published 2015).

Where two headings read alike, the source gives them in different places. *1 amine or outer side, *2 acyl side, *3 side chain or, on linkers, in order; H or OH if unused. Primed or numbered codes have the meaning given here. Where no end group is shown, it is not given here. [ ]: non-standard residue; d: D form. T1 = linker NH2CH2CH2N(SO2Me)CH2COOH, CS(=O)(=O)N(CCN[*:1])CC(=O)[*:2]; T1″ = NH2CH2CH2N(SO2Me)CH2COOH, CS(=O)(=O)N(CCN[*:1])CC(=O)[*:2]; Nle = CCCC[C@H](N)C(=O)O

One data set has as its system H929 myeloma cells. In kind it is cell-based, human. The settings on record: for bioactivity relative to parent/comparator peptide: SAR statements; for fold more potent than linear HYD1: reference of the 10- and 15-fold statements not expressly named; for activity relative to linear D-HYD1 (words): TOPRO 3. The procedure: H929 cells were treated for 24 hours with varying concentrations of peptide. Cell death was measured by Topro-3 staining and FACS analysis. The IC50 values were obtained from linear regression analysis and an average value was obtained from 3 independent experiments.
Table 4 legend: Structure activity relationship in H929 myeloma cells of cyclic INTEGRIN INTERACTION INHIBITORS derivatives. The minimal bioactive core sequence of INTEGRIN INTERACTION INHIBITORS WSVVM (SEQ ID NO:33) was cyclized using 2 novel reduced amide bond beta turn promoters and KLKLK (SEQ ID NO:34) as the non-recognition sequence. H929 cells were treated with varying concentrations of the indicated peptide for 24 h. Cell viability was determined using Topro-3 staining and FACS analysis after drug treatment. IC50 values were generated from linear regressions generated from the dose response curves (n=mean of 3 independent experiments).
A colony forming assay was used to compare induced cell death in H929 multiple myeloma cells. Cells were treated with integrin interaction inhibitors, shown in FIG. 5 and Table 4, and cell death was measured following 24 hour peptide treatment by TOPRO-3 staining and FACS analysis.

Data set [1] deals with peripheral blood mononuclear cells (PBMC). The experiment in a line: Cell death in normal peripheral blood mononuclear cells, annexin V positivity and FACS. In kind it is cell-based, human. The settings on record: 6.25-50 ug/ml, six hours. The procedure:
Peripheral blood mononuclear cells (PBMC) were isolated from a normal donor. Cells were treated with 6.25, 12.5, 25 and 50 ug/ml for six hours and cell death was measured by annexin V positivity and FACS analysis.
CD34^+ hematopoietic progenitor cells were isolated from peripheral blood and treated for 2 hrs with integrin interaction inhibitors (12.5 and 50 μg/ml) and then plated in a methylcellulose media supplemented with growth factors supporting myeloid and erythroid colonies. Colonies were counted on day 12 post-plating. […] In addition, we evaluated the toxicity of integrin interaction inhibitors in normal peripheral blood mononuclear cells (PBMC).

Data set [2] has as its target Basigin (Homo sapiens (Human)) (UniProt P35613). The experiment in a line: biotin-HYD1 NeutrAvidin pull-down of U266 membranes, LC-MS/MS.
Data set [3] has as its target CD44 (endogenous, of NCI-H929, U266, U937 and HL-60 cells) (human) (UniProt P16070). Described as above.
Data set [4] concerns the target CD59 (UniProt P13987). The data set is described as above.
Data set [5] deals with Intercellular adhesion molecule 1 (ICAM1) (Homo sapiens (Human)) (UniProt P05362). Described as above.
The target in data set [6] is Intercellular adhesion molecule 3 (ICAM3) (Homo sapiens (Human)) (UniProt P32942). The description is as above.
Data set [7] deals with Syndecan-1 (Homo sapiens (Human)) (UniProt P18827). Described as above.
Data set [8] concerns the target Basigin (Homo sapiens (Human)) (UniProt P35613). The experiment in a line: biotin-HYD1 NeutrAvidin pull-down of NCI-H929 membranes, LC-MS/MS.
In data set [9] the target is CD44 (endogenous, of NCI-H929, U266, U937 and HL-60 cells) (human) (UniProt P16070). Described as above.
Data set [10] has as its target CD59 (UniProt P13987). The description is as above.
Data set [11] addresses Neural cell adhesion molecule 1 (NCAM1) (Homo sapiens (Human)) (UniProt P13591). The description is as above.
Data set [12] deals with Syndecan-1 (Homo sapiens (Human)) (UniProt P18827). The description is as above.
Data set [13] addresses α4 integrin (Homo sapiens (Human)) (UniProt P13612). The data set is described as above.
The target of another data set is β1 integrin (UniProt P05556). The description is as above.
Data set [14] concerns the target recombinant human CD44 ectodomain (amino acids 20-178, His-tagged, refolded from E. coli) (human) (UniProt P16070). The experiment in a line: SPR, recombinant CD44 ectodomain on biotin conjugated HYD1, two-state binding model.
Data set [15] has the same target. The experiment in a line: SPR, Biacore T100, recombinant CD44 ectodomain over biotin-HYD1 sensor chip, 1:1 binding model. For orientation: SPR reads the build-up and loss of mass on a sensor chip optically.
Data set [16] deals with CD59 (UniProt P13987). The experiment in a line: LC-MS/MS of the biotin-HYD1 binding complex pulled down from NCI-H929 membranes (row CD59, column NCI-H929) [panel A.].
The mark [17] stands for this setting: H929 myeloma cells, 24 h treatment, Topro-3 staining and FACS, mean of at least 3 independent experiments, read-out: IC50.
Where [18] appears, read: Table 8, cyclic III peptide analogs, H929 cells, read-out: IC50.

CD59, sequence (P13987 26-102 limits assumed): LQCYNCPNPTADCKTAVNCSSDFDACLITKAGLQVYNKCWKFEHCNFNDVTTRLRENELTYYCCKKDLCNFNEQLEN
CD44 (endogenous, of NCI-H929, U266, U937 and HL-60 cells) (human), sequence (P16070 21-742 limits assumed): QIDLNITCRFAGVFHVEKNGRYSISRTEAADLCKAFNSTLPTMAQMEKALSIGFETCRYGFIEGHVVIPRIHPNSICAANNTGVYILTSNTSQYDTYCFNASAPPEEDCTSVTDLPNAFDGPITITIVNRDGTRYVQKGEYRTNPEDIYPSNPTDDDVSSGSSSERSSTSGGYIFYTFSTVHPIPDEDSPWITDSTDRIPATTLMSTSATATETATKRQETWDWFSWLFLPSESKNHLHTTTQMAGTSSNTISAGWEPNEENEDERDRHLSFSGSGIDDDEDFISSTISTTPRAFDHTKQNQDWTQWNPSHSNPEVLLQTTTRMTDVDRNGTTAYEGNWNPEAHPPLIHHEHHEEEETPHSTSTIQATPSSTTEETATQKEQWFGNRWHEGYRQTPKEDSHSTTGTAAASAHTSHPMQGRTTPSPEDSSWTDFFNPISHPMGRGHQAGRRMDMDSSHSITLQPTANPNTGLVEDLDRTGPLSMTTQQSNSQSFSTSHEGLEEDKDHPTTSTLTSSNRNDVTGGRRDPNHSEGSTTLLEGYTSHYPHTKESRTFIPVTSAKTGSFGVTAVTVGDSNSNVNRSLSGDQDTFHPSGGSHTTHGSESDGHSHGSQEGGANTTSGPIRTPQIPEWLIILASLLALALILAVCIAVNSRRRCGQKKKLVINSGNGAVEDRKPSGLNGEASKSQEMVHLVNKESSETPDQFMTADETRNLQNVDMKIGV
Syndecan-1 (Homo sapiens (Human)), sequence (P18827 23-310 L136Q/G259V limits assumed): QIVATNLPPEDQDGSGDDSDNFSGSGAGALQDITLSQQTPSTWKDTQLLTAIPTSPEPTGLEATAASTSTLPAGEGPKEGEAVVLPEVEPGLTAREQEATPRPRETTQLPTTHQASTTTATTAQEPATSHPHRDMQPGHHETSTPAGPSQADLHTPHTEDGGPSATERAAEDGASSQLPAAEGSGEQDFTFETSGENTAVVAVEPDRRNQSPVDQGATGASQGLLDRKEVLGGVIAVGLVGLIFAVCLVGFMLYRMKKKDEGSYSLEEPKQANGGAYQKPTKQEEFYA
recombinant human CD44 ectodomain (amino acids 20-178, His-tagged, refolded from E. coli) (human), sequence (P16070 20-178): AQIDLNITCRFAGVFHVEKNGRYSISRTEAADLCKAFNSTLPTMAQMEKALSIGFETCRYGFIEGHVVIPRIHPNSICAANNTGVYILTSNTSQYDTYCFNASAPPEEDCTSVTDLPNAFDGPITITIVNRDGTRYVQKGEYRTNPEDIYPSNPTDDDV
Basigin (Homo sapiens (Human)), sequence (P35613 other isoform, or with tags, fused parts or gaps limits assumed): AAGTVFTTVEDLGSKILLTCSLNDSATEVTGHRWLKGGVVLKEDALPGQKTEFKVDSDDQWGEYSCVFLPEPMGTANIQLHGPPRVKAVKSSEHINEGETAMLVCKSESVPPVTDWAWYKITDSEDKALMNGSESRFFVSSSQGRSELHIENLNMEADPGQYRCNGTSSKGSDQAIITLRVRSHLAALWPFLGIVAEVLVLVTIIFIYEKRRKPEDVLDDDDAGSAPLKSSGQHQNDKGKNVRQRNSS
Intercellular adhesion molecule 1 (ICAM1) (Homo sapiens (Human)), sequence (P05362 28-532 limits assumed): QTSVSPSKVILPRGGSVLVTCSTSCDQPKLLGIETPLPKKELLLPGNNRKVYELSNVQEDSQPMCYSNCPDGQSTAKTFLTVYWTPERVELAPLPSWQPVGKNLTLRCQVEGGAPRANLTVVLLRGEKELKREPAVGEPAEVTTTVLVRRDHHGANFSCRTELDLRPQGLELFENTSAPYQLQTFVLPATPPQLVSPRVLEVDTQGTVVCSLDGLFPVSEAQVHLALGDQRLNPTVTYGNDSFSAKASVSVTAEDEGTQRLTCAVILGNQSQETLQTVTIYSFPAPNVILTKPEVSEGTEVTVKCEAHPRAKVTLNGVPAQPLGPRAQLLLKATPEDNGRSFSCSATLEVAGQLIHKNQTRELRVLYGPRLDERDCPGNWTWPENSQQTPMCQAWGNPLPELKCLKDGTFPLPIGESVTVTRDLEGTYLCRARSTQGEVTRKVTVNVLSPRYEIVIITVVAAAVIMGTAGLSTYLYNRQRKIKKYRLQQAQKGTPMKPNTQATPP
Neural cell adhesion molecule 1 (NCAM1) (Homo sapiens (Human)), sequence (P13591 other isoform, or with tags, fused parts or gaps limits assumed): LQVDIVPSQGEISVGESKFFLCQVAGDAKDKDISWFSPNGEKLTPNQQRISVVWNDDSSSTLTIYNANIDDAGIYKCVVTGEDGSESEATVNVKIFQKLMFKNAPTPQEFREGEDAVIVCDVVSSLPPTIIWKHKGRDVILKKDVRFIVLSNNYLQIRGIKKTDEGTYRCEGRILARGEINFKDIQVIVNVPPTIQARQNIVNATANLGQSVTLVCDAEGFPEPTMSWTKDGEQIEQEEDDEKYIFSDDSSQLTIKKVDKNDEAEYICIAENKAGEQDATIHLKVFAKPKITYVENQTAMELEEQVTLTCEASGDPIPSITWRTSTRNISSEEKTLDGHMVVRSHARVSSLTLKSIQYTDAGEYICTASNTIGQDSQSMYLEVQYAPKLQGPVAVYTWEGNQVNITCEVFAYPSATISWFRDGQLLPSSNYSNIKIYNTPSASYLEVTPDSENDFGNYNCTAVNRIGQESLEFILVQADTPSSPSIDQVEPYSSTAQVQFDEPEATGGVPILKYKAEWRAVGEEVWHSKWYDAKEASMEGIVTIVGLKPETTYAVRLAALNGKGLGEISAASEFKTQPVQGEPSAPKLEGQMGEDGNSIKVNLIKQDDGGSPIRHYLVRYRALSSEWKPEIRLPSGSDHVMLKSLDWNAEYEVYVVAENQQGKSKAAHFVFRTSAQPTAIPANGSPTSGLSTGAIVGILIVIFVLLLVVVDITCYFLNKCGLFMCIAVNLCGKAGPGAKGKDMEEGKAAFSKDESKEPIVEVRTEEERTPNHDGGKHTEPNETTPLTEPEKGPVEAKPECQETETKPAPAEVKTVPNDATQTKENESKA
Intercellular adhesion molecule 3 (ICAM3) (Homo sapiens (Human)), sequence (P32942 30-547 limits assumed): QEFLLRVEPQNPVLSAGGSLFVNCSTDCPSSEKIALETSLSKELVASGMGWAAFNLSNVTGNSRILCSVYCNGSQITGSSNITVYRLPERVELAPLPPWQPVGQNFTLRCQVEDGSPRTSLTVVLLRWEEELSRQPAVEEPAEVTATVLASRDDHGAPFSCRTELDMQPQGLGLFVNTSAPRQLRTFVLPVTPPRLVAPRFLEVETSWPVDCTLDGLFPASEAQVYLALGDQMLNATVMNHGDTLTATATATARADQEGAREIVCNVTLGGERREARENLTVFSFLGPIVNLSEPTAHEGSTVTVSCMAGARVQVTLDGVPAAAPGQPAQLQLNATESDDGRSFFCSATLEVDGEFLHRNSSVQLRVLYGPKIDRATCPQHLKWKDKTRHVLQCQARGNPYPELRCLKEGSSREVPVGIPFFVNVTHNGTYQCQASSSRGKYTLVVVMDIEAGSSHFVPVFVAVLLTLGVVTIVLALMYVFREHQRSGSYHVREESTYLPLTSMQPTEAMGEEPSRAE
β1 integrin, sequence (P05556 21-798): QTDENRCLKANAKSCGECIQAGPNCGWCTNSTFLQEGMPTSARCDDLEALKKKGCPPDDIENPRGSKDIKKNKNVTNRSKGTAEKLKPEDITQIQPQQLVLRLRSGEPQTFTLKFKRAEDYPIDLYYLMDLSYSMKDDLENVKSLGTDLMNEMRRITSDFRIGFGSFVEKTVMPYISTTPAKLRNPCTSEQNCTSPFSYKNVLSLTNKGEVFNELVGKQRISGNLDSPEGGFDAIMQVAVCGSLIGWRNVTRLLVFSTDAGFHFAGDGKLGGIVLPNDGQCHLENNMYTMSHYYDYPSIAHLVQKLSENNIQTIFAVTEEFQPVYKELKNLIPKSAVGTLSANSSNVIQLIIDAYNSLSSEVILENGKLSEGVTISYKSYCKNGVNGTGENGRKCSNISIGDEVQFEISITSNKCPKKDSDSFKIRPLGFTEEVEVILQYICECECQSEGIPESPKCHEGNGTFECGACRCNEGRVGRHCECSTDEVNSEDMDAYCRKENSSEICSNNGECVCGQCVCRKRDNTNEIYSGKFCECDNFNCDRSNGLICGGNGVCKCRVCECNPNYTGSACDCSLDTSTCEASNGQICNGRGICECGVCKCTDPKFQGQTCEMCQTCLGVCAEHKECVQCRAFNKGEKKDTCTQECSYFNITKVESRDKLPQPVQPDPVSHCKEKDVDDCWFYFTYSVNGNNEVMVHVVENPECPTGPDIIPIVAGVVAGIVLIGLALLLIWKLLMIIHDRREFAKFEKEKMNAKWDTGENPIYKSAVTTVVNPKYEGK

Usually IC50 stands for the point on the concentration scale where inhibition reaches its midpoint. On to “KLKLKT1AAVVN*T1 (cyclo(KLKLK[T1″]AAVV[Nle][T1″])) [Peptide 15]”, for which the 50% inhibitory concentration (IC50) was determined as 18 µM in the data set on H929 myeloma cells (setting [17]) and 3 µM in the data set on H929 myeloma cells (setting [18]). Further, the “bioactivity relative to parent/comparator peptide” value with H929 myeloma cells (H929 cells) was “unexpected improvement in bioactivity”.

Consider `CCCC[C@@H]1NC(=O)CN(S(C)(=O)=O)CCNC(=O)[C@H](CCCCN)NC(=O)[C@H](CC(C)C)NC(=O)[C@H](CCCCN)NC(=O)[C@H](CC(C)C)NC(=O)[C@H](CCCCN)NC(=O)CN(S(C)(=O)=O)CCNC(=O)[C@H](Cc2c[nH]c3ccccc23)NC(=O)[C@H](Cc2ccc(O)cc2)NC(=O)[C@H](C(C)C)NC(=O)[C@H](C(C)C)NC1=O` [Peptide 9, KLKLKT1N*VVYWT1], for which, in the data set with H929 myeloma cells (H929 cells), the “bioactivity relative to parent/comparator peptide” value is on record as “had a similar bioactivity as the inverso cyclic III peptide 8”.

In the case of `CSCC[C@@H]1NC(=O)CN(S(C)(=O)=O)CCNC(=O)[C@H](CCCCN)NC(=O)[C@H](CC(C)C)NC(=O)[C@H](CCCCN)NC(=O)[C@H](CC(C)C)NC(=O)[C@H](CCCCN)NC(=O)CN(S(C)(=O)=O)CCNC(=O)[C@H](Cc2c[nH]c3ccccc23)NC(=O)[C@H](C)NC(=O)[C@H](C(C)C)NC(=O)[C@H](C(C)C)NC1=O` [Peptide 4, KLKLKT1MVVAWT1], in the data set on H929 myeloma cells (H929 cells), the “fold more potent than linear HYD1” value is on record as “approximately 10 fold” and the “bioactivity relative to parent/comparator peptide” value was “significantly improved the bioactivity”. Also, in the data set with H929 myeloma cells (H929 cells, listed as L-cINTEGRIN INTERACTION INHIBITORSa7), the “bioactivity relative to parent/comparator peptide” value is reported as “increase in activity”.

Regarding `CC[C@@H](C)[C@@H](NC(=O)[C@H](N)CCCCN)C(=O)N[C@H](CCCCN)C(=O)N[C@H](CCSC)C(=O)N[C@@H](C(=O)N[C@@H](C(=O)N[C@H](CO)C(=O)N[C@H](Cc1c[nH]c2ccccc12)C(=O)N[C@H](CCCCN)C(=O)NCC(=O)O)[C@H](C)CC)C(C)C` [HYD1], the “cell death in PBMC” value in [1] was “more potent in MM cells (H929) compared to normal hematopoietic cells”.

Consider `CSCC[C@@H]1NC(=O)CN(S(C)(=O)=O)CCNC(=O)[C@H](CCCCN)NC(=O)[C@H](CC(C)C)NC(=O)[C@H](CCCCN)NC(=O)[C@H](CC(C)C)NC(=O)[C@H](CCCCN)NC(=O)CN(S(C)(=O)=O)CCNC(=O)[C@H](Cc2c[nH]c3ccccc23)NC(=O)[C@H](CO)NC(=O)[C@H](C(C)C)NC(=O)[C@H](C(C)C)NC1=O` [Peptide 2, KLKLKT1MVVSWT1], for which, in the data set with H929 myeloma cells (H929 cells), the “fold more potent compared to the cyclic D-HYD1 variant” value amounted to 2 fold and the “fold more potent than linear HYD1” value was found to be 2.5 fold.

For “KLKLKT1WSVVMT1 (cyclo(KLKLK[T1]WSVVM[T1])) [Peptide 10]”, the IC50 with H929 myeloma cells (setting [17]) is 1 µM; with H929 myeloma cells (Table 4, H929 myeloma cells, 24 h, Topro-3 staining and FACS, mean of 3 independent experiments, read-out: IC50) it was 6.7 µM; with H929 myeloma cells (Table 5, H929 multiple myeloma cells, 24 hour peptide treatment, mean and standard deviation of three independent experiments, read-out: IC50) it was 5.9 µM; with H929 myeloma cells (setting [18]), 6 µM. The “bioactivity relative to parent/comparator peptide” value with H929 myeloma cells (H929 cells) was “increases in activity relative to the inverso peptide”.

Consider “KLKLKT1WAVVAT1 (cyclo(KLKLK[T1]WAVVA[T1])) [Peptide 12]”, for which the IC50 came to 10 µM in the data set with H929 myeloma cells (setting [17]) and 69 µM in the data set with H929 myeloma cells (setting [18]).

Turning to `CSCC[C@H]1NC(=O)CN(S(C)(=O)=O)CCNC(=O)[C@@H](CCCCN)NC(=O)[C@@H](CC(C)C)NC(=O)[C@@H](CCCCN)NC(=O)[C@@H](CC(C)C)NC(=O)[C@@H](CCCCN)NC(=O)CN(S(C)(=O)=O)CCNC(=O)[C@@H](Cc2c[nH]c3ccccc23)NC(=O)[C@@H](CO)NC(=O)[C@@H](C(C)C)NC(=O)[C@@H](C(C)C)NC1=O` [cyclic D-HYD1], the IC50 with H929 myeloma cells (24 h) stood at 30 µM. For the same molecule, the “activity relative to linear D-HYD1 (words)” value is listed as “twice as active as linear D-HYD1” in the data set on H929 myeloma cells (H929 cells) and “about twice as active as linear D-HYD1” in the data set on H929 myeloma cells (H929 cells, listed as c-D-HYD1).

With “KLKLKT1WAVVN*T1 (cyclo(KLKLK[T1]WAVV[Nle][T1])) [Peptide 11]”, the IC50 in the data set with H929 myeloma cells (setting [17]) came to 10 µM; with H929 myeloma cells (setting [18]), 12 µM.

The Kd is the concentration at which binding is half-saturated. Take [dK][dI][dK][dM][dV][dI][dS][dW][dK]G (also: biotin conjugated, site not given here) [biotin-HYD1 (biotin conjugated HYD1, all D-amino acid peptide kikmviswkg)]: the Peptide match (peptide match hits) in data set [2] is 8; in data set [3] it was 5; with CD59 [4] it was 2; in data set [5], 6; in data set [6], 3; in [7], 6. For the same molecule, the Peptide match (peptide match hits) in data set [8] came out at 7; in data set [9], 7; in the data set with CD59 [10] it was 2; in data set [11], 4; in [12], 5; in [13], 3. Also, in the data set with β1 integrin, the Peptide match (peptide match hits) is 2. Besides, the figures for the Kd in data set [14] and in data set [15] were 0.0244 µM and 0.026 µM, respectively. Also, the # peptides identified with CD59 [16] was determined as 3 peptides.
